Data on twelve compounds can be found in patent publication US10081624B2, “Heterocyclic compound” (Takeda Pharmaceutical Company Limited, priority 2014, dated 2018).

This assay concerns the target T1, HDAC6 enzyme (Homo sapiens, UniProt Q9UBN7).
T1 construct: prepared by transducing full length HDAC1 and HDAC6 genes into Sf-9 insect cells; GST; purchased SignalChem; host or cells: Sf-9 insect cells
T1 sequence (Q9UBN7 1-1215): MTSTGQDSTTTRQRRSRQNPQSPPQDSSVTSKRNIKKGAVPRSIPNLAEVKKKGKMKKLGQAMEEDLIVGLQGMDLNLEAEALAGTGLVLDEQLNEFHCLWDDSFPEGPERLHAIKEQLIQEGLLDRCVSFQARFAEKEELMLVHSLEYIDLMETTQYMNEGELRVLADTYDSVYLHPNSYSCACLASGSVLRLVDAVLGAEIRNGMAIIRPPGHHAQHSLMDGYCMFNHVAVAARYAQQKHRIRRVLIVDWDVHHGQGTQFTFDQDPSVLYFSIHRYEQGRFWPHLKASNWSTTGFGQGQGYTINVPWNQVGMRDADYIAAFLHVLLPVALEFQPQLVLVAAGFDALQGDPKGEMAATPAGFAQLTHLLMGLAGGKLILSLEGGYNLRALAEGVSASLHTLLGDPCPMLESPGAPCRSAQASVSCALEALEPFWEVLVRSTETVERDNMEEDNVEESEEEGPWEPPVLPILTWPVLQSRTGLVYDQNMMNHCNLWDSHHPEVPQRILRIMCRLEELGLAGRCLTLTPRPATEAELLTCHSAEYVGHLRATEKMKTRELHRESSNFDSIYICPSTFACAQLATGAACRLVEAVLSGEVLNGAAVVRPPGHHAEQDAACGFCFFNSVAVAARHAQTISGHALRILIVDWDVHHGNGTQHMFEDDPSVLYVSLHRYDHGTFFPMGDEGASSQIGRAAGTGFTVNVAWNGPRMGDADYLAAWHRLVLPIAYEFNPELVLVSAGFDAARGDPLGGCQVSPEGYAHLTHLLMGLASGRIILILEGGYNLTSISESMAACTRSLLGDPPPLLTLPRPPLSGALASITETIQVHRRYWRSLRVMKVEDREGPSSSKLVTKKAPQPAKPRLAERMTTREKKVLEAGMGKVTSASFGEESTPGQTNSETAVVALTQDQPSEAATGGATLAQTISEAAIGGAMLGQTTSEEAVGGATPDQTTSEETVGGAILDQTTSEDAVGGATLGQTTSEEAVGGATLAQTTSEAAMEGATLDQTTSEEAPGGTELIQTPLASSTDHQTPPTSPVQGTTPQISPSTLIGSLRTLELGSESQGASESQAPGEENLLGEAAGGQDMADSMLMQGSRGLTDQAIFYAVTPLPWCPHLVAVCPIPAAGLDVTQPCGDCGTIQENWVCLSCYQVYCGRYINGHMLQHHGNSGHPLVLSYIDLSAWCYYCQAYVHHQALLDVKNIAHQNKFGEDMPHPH
Nature of the assay: HDAC6 enzyme inhibitory assay (HDAC-Glo I/II Assay kit). It is filed as biochemical. The settings on record: 1 μM test compound; read-out: HDAC6 inhibitory rate (%) (1 μM). The method, then: HDAC1 enzyme and HDAC6 enzyme each prepared by transducing full length HDAC1 and HDAC6 genes into Sf-9 insect cells and purifying by GST affinity column were purchased from SignalChem. Using these enzymes, HDAC1 and/or HDAC6 enzyme inhibitory activities of the compound of the present invention were evaluated. Enzymes were used after preserved at −70° C. HDAC1 or HDAC6 enzyme inhibitory activity of the compound of the present invention was measured using HDAC-Glo™ I/II Assay kit (Promega) according to the following experimental method. The test compound diluted with assay buffer (24 mM Tris-HCl (pH 7.5), 1 mM MgCl2, 0.35 mM KCl, 135 mM NaCl, 0.6 mM Glutathione, 0.01% Tween-20) was added to a 384-well plate by each 2 μL. Then, HDAC1 or HDAC6 enzyme solution diluted with assay buffer was added thereto by each 4 μL, and the plate was incubated at room temperature for 60 min. After incubated, HDAC substrate-Developer solution prepared according to Promega protocol attached to the assay kit was added to the 384-well plate by each 2 μL, and the enzyme reaction was started. After reacting at room temperature for 20 min, luminescence level was measured using plate reader Envision (PerkinElmer). The inhibitory activity of each compound was calculated as a relative activity value when luminescence level in wells without enzyme is considered as 100% inhibition.
Consider `O=C(NC[C@@H]1COCCN1C(=O)C1CCOC1)c1ccc(-c2noc(C(F)(F)F)n2)cc1` (stereo partly drawn) [Example 151, N-(((3R)-4-(tetrahydrofuran-3-ylcarbonyl)morpholin-3-yl)methyl)-4-(5-(trifluoromethyl)-1,2,4-oxadiazol-3-yl)benzamide], for which the inhibition at 1 µM was determined as 90%. The result for `Cn1nccc1C(=O)N1CCOC[C@H]1CNC(=O)c1ccc(-c2noc(C(F)(F)F)n2)cc1` [Example 154, N-(((3R)-4-((1-methyl-1H-pyrazol-5-yl)carbonyl)morpholin-3-yl)methyl)-4-(5-(trifluoromethyl)-1,2,4-oxadiazol-3-yl)benzamide] reads 89%; that for `N#Cc1cc(F)cc(C(=O)N2CCOC[C@H]2CNC(=O)c2ccc(-c3noc(C(F)(F)F)n3)cc2)c1` [Example 156, N-(((3R)-4-(3-cyano-5-fluorobenzoyl)morpholin-3-yl)methyl)-4-(5-(trifluoromethyl)-1,2,4-oxadiazol-3-yl)benzamide], 95%; that for `O=C(NCC1Cc2ccccc2N1C(=O)C1CC1)c1ccc(-c2noc(C(F)(F)F)n2)cc1` (stereo not drawn) [Example 166, N-((1-(cyclopropylcarbonyl)-2,3-dihydro-1H-indol-2-yl)methyl)-4-(5-(trifluoromethyl)-1,2,4-oxadiazol-3-yl)benzamide], 98%. The value for `O=C(NCC1Cc2ccccc2N1C(=O)c1cc(Cl)cc(Cl)c1)c1ccc(-c2noc(C(F)(F)F)n2)cc1` (stereo not drawn) [Example 168, N-((1-(3,5-dichlorobenzoyl)-2,3-dihydro-1H-indol-2-yl)methyl)-4-(5-(trifluoromethyl)-1,2,4-oxadiazol-3-yl)benzamide] was 70%.

Consider `O=C(NCC1c2ccccc2CN1C(=O)C1CC1)c1ccc(-c2noc(C(F)(F)F)n2)cc1` (stereo not drawn) [Example 169, N-((2-(cyclopropylcarbonyl)-2,3-dihydro-1H-isoindol-1-yl)methyl)-4-(5-(trifluoromethyl)-1,2,4-oxadiazol-3-yl)benzamide], for which the inhibition at 1 µM is 84%. Take `O=C(NCC1c2ccccc2CN1C(=O)c1ccccc1)c1ccc(-c2noc(C(F)(F)F)n2)cc1` (stereo not drawn) [Example 170, N-((2-benzoyl-2,3-dihydro-1H-isoindol-1-yl)methyl)-4-(5-(trifluoromethyl)-1,2,4-oxadiazol-3-yl)benzamide]: the inhibition at 1 µM was determined as 80%. Take `O=C(NCC1c2ccccc2CN1C(=O)c1cc(Cl)cc(Cl)c1)c1ccc(-c2noc(C(F)(F)F)n2)cc1` (stereo not drawn) [Example 171, N-((2-(3,5-dichlorobenzoyl)-2,3-dihydro-1H-isoindol-1-yl)methyl)-4-(5-(trifluoromethyl)-1,2,4-oxadiazol-3-yl)benzamide]: the inhibition at 1 µM came out at 66%. The value for `O=C(NCC1Cc2ccccc2CN1C(=O)C1CC1)c1ccc(-c2noc(C(F)(F)F)n2)cc1` (stereo not drawn) [Example 174, N-((2-(cyclopropylcarbonyl)-1,2,3,4-tetrahydroisoquinolin-3-yl)methyl)-4-(5-(trifluoromethyl)-1,2,4-oxadiazol-3-yl)benzamide] was 94%; that for `O=C(NCC1Cc2ccccc2CN1C(=O)c1cc(Cl)cc(Cl)c1)c1ccc(-c2noc(C(F)(F)F)n2)cc1` (stereo not drawn) [Example 176, N-((2-(3,5-dichlorobenzoyl)-1,2,3,4-tetrahydroisoquinolin-3-yl)methyl)-4-(5-(trifluoromethyl)-1,2,4-oxadiazol-3-yl)benzamide] was 82%; that for `O=C(NCC1COCCN1C(=O)c1ccccc1)c1ccc(-c2noc(C(F)(F)F)n2)nc1` (stereo not drawn) [Example 180, N-((4-benzoylmorpholin-3-yl)methyl)-6-(5-(trifluoromethyl)-1,2,4-oxadiazol-3-yl)nicotinamide] was 91%. The value for `O=C(NC[C@H]1COCCN1C(=O)c1cccc(F)c1)c1ccc(-c2noc(C(F)(F)F)n2)cn1` [Example 185, N-(((3S)-4-(3-fluorobenzoyl)morpholin-3-yl)methyl)-5-(5-(trifluoromethyl)-1,2,4-oxadiazol-3-yl)pyridine-2-carboxamide] was 97%.
